Measurements published in PubChem BioAssay (NCI).
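Assay format: 96-well plates, 48-hour exposure. At the GI50, growth is halved. At the TGI there is no net growth.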

Assays:
Experiment in all cases: NCI-60 cell line screen, 48 h
[1] = test system: UACC-257 melanoma
[2] = test system: SK-MEL-2 melanoma
[3] = test system: UACC-62 melanoma
[4] = test system: HCT-116 colon
[5] = test system: HOP-62 NSCLC
[6] = test system: MOLT-4 leukemia
[7] = test system: M14 melanoma
[8] = test system: SF-539 CNS
[9] = test system: SN12C renal
[10] = test system: MDA-MB-435
[11] = test system: SK-OV-3 ovarian
[12] = test system: RPMI-8226 leukemia
[13] = test system: NCI/ADR-RES ovarian
[14] = test system: HCC-2998 colon
[15] = test system: A498 renal
[16] = test system: SNB-19 CNS
[17] = test system: SF-295 CNS
[18] = test system: PC-3 prostate
[19] = test system: OVCAR-5 ovarian
[20] = test system: NCI-H522 lung
[21] = test system: MALME-3M melanoma
[22] = test system: HL-60(TB) leukemia
[23] = test system: HCT-15 colon
[24] = test system: SW-620 colon
[25] = test system: 786-0 renal
[26] = test system: KM12 colon
[27] = test system: BT-549 breast
[28] = test system: CCRF-CEM leukemia
[29] = test system: SK-MEL-28 melanoma
[30] = test system: SK-MEL-5 melanoma
[31] = test system: NCI-H460 lung
[32] = test system: MCF7 breast
[33] = test system: OVCAR-3 ovarian
[34] = test system: OVCAR-8 ovarian
[35] = test system: CAKI-1 renal
[36] = test system: SNB-75 CNS
[37] = test system: T-47D breast
[38] = test system: TK-10 renal
[39] = test system: DU-145 prostate
[40] = test system: HT29 colon
[41] = test system: SF-268 CNS
[42] = test system: OVCAR-4 ovarian
[43] = test system: ACHN renal
[44] = test system: A549 NSCLC
[45] = test system: EKVX NSCLC
[46] = test system: K-562 leukemia
[47] = test system: MDA-MB-231 breast
[48] = test system: NCI-H226 lung
[49] = test system: HOP-92 NSCLC
[50] = test system: SR leukemia
[51] = test system: UO-31 renal
[52] = test system: COLO 205 colon
[53] = test system: HS 578T breast
[54] = test system: RXF 393 renal
[55] = test system: U251 CNS
[56] = test system: IGROV1 ovarian
[57] = test system: LOX IMVI melanoma
[58] = test system: NCI-H23 lung

Fc1ccc(-c2nc(C(Cl)Cl)nc3cc(-c4ccccc4)nn23)cc1
GI50 [1]: > 100 µM
TGI [1]: > 100 µM
GI50 [2]: > 100 µM
TGI [2]: > 100 µM
GI50 [3]: > 100 µM
TGI [3]: > 100 µM
GI50 [4]: 38.5 µM
TGI [4]: > 100 µM
GI50 [5]: 12.1 µM
TGI [5]: > 100 µM
GI50 [6]: 7.81 µM
TGI [6]: > 100 µM
GI50 [7]: > 100 µM
TGI [7]: > 100 µM
GI50 [8]: > 100 µM
TGI [8]: > 100 µM
GI50 [9]: > 100 µM
TGI [9]: > 100 µM
GI50 [10]: > 100 µM
TGI [10]: > 100 µM
GI50 [11]: 10.7 µM
TGI [11]: > 100 µM
GI50 [12]: > 100 µM
TGI [12]: > 100 µM
GI50 [13]: 6.48 µM
TGI [13]: > 100 µM
GI50 [14]: 2.27 µM
TGI [14]: 6.21 µM
GI50 [15]: > 100 µM
TGI [15]: > 100 µM
GI50 [16]: 10.5 µM
TGI [16]: > 100 µM
GI50 [17]: 28.2 µM
TGI [17]: > 100 µM
GI50 [18]: > 100 µM
TGI [18]: > 100 µM
GI50 [19]: 22.3 µM
TGI [19]: > 100 µM
GI50 [20]: 7.36 µM
TGI [20]: > 100 µM
GI50 [21]: > 100 µM
TGI [21]: > 100 µM
GI50 [22]: 3.79 µM
TGI [22]: > 100 µM
GI50 [23]: 4.64 µM
TGI [23]: > 100 µM
GI50 [24]: 5.05 µM
TGI [24]: > 100 µM
GI50 [25]: > 100 µM
TGI [25]: > 100 µM
GI50 [26]: 15.9 µM
TGI [26]: > 100 µM
GI50 [27]: > 100 µM
TGI [27]: > 100 µM
GI50 [28]: > 100 µM
TGI [28]: > 100 µM
GI50 [29]: > 100 µM
TGI [29]: > 100 µM
GI50 [30]: > 100 µM
TGI [30]: > 100 µM
GI50 [31]: 3.63 µM
TGI [31]: > 100 µM
GI50 [32]: 7.36 µM
TGI [32]: > 100 µM
GI50 [33]: 6.13 µM
TGI [33]: > 100 µM
GI50 [34]: 7.33 µM
TGI [34]: > 100 µM
GI50 [35]: 16 µM
TGI [35]: > 100 µM
GI50 [36]: > 100 µM
TGI [36]: > 100 µM
GI50 [37]: > 100 µM
TGI [37]: > 100 µM
GI50 [38]: > 100 µM
TGI [38]: > 100 µM
GI50 [39]: 2.46 µM
TGI [39]: 6.55 µM
GI50 [40]: 3.92 µM
TGI [40]: > 100 µM
GI50 [41]: > 100 µM
TGI [41]: > 100 µM
GI50 [42]: 7.21 µM
TGI [42]: > 100 µM
GI50 [43]: 3.58 µM
TGI [43]: > 100 µM
GI50 [44]: 3.72 µM
TGI [44]: 33.8 µM
GI50 [45]: 7.79 µM
TGI [45]: > 100 µM
GI50 [46]: 15.9 µM
TGI [46]: > 100 µM
GI50 [47]: 35.4 µM
TGI [47]: > 100 µM
GI50 [48]: > 100 µM
TGI [48]: > 100 µM
GI50 [49]: > 100 µM
TGI [49]: > 100 µM
GI50 [50]: 5.23 µM
TGI [50]: > 100 µM
GI50 [51]: > 100 µM
TGI [51]: > 100 µM
GI50 [52]: 3.67 µM
TGI [52]: 21.9 µM
GI50 [53]: > 100 µM
TGI [53]: > 100 µM
GI50 [54]: 3.79 µM
TGI [54]: 18.5 µM
GI50 [55]: 5.79 µM
TGI [55]: > 100 µM
GI50 [56]: > 100 µM
TGI [56]: > 100 µM

Cc1ccc(C(=O)Nc2ccc(CNCCN3CCOCC3)c(C(F)(F)F)c2)cc1C#Cc1cnc2cccnn12
GI50 [1]: 1.69 µM
TGI [1]: 3.57 µM
GI50 [2]: 1.27 µM
TGI [2]: 3.44 µM
GI50 [3]: 1.45 µM
TGI [3]: 3.43 µM
GI50 [57]: 0.515 µM
TGI [57]: 1.87 µM
GI50 [4]: 0.5 µM
TGI [4]: 2.43 µM
GI50 [5]: 2.16 µM
TGI [5]: 6.55 µM
GI50 [6]: 1.31 µM
TGI [6]: 5.37 µM
GI50 [8]: 1.32 µM
TGI [8]: 2.67 µM
GI50 [9]: 1.75 µM
TGI [9]: 5.68 µM
GI50 [10]: 0.746 µM
TGI [10]: 2.32 µM
GI50 [11]: 3.91 µM
TGI [11]: 13.6 µM
GI50 [12]: 1.42 µM
TGI [12]: 3.83 µM
GI50 [13]: 2.17 µM
TGI [13]: 7.47 µM
GI50 [14]: 1.55 µM
TGI [14]: 3.24 µM
GI50 [58]: 0.89 µM
TGI [58]: 3.03 µM
GI50 [15]: 1.94 µM
TGI [15]: 4.28 µM
GI50 [16]: 3.11 µM
TGI [16]: 9.73 µM
GI50 [17]: 1.62 µM
TGI [17]: 3.57 µM
GI50 [18]: 2.07 µM
TGI [18]: 6.17 µM
GI50 [19]: 1.85 µM
TGI [19]: 8.17 µM
GI50 [20]: 1.99 µM
TGI [20]: 5.22 µM
GI50 [21]: 0.229 µM
TGI [21]: 1.87 µM
GI50 [22]: 0.145 µM
TGI [22]: 2.6 µM
GI50 [23]: 0.925 µM
TGI [23]: 4.9 µM
GI50 [24]: 1.66 µM
TGI [24]: 10.5 µM
GI50 [25]: 1.21 µM
TGI [25]: 3.29 µM
GI50 [26]: 0.393 µM
TGI [26]: 2.68 µM
GI50 [27]: 2.27 µM
TGI [27]: 4.56 µM
GI50 [28]: 1.55 µM
TGI [28]: 8.23 µM
GI50 [29]: 1.22 µM
TGI [29]: 2.74 µM
GI50 [30]: 1.45 µM
TGI [30]: 2.81 µM
GI50 [31]: 1.76 µM
TGI [31]: 3.9 µM
GI50 [32]: 1.42 µM
TGI [32]: 3.2 µM
GI50 [33]: 2.39 µM
TGI [33]: 6.24 µM
GI50 [34]: 3.09 µM
TGI [34]: 10.8 µM
GI50 [35]: 2.9 µM
TGI [35]: 7.23 µM
GI50 [36]: 0.0644 µM
TGI [36]: 0.778 µM
GI50 [37]: 2.37 µM
TGI [37]: 6.73 µM
GI50 [38]: 2.61 µM
TGI [38]: 7.51 µM
GI50 [39]: 2.92 µM
TGI [39]: 8.19 µM
GI50 [40]: 0.794 µM
TGI [40]: 5.99 µM
GI50 [41]: 2.46 µM
TGI [41]: 7.04 µM
GI50 [42]: 2.52 µM
TGI [42]: 14.5 µM
GI50 [43]: 2.82 µM
TGI [43]: 9.55 µM
GI50 [44]: 2.54 µM
TGI [44]: 10.6 µM
GI50 [45]: 3.12 µM
TGI [45]: 10.7 µM
TGI [46]: 11.6 µM
GI50 [47]: 1.15 µM
TGI [47]: 3.19 µM
GI50 [48]: 1.66 µM
TGI [48]: 7.59 µM
GI50 [49]: 0.761 µM
TGI [49]: 3.12 µM
GI50 [50]: 1.4 µM
TGI [50]: 6.64 µM
GI50 [51]: 1.45 µM
TGI [51]: 3.47 µM
GI50 [52]: 1.23 µM
TGI [52]: 3.82 µM
GI50 [53]: 1.81 µM
TGI [53]: 5.24 µM
GI50 [54]: 1.63 µM
TGI [54]: 3.21 µM
GI50 [55]: 1.84 µM
TGI [55]: 4.65 µM
GI50 [56]: 1.27 µM
TGI [56]: 3.43 µM
